Ends that are not written are not given here. Peptide text beside a SMILES is read from it. * marks the point of attachment. Oleoyl = CCCCCCCC/C=C\CCCCCCCC(=O)*; HOOC(CH2)6CO = O=C(O)CCCCCCC(=O)*; Palmitoyl = CCCCCCCCCCCCCCCC(=O)*; Myristoyl = CCCCCCCCCCCCCC(=O)*; Lauroyl = CCCCCCCCCCCC(=O)*
Key:
[1] = tested on: human ovarian adenocarcinoma (SK-OV-3) cells; assay: Cytotoxicity (MTS proliferation assay) of peptides in SK-OV-3 cells; assay type: cell-based
Protocol: (§1) All bioassays were performed in triplicate.
(§2) The linear and cyclic peptides at concentrations (5, 10, 25, 50 and 100 µM) were added to the cells and incubated at 37 °C with 5% carbon dioxide for 72 h. After 72 h of incubation, the pH of media were tested. […] Then 20 µL of MTS reagent was added to each well. […] The […] of the formazan product was measured at 490 nm using a Spectra Max M2 microplate spectrophotometer. The percentage of cell survival was calculated as [(OD value of cells treated with the test mixture of compounds) − (OD value of culture medium)]/[(OD value of control cells) − (OD value of culture medium)] × 100%.

[2] = tested on: human leukemia cancer cell line (CCRF-CEM); assay: Cytotoxicity (MTS proliferation assay) of peptides in CCRF-CEM cells; assay type: cell-based
Protocol: as §1, §2

CCRF-CEM cells = assay: Antiproliferative assay of anticancer drugs using C20-(HR)4 in CCRF-CEM cells; conditions: drug 5 µM + C20-(HR)4 50 µM, 72 h, vs drug alone
SK-OV-3 cells = assay: Antiproliferative assay of anticancer drugs using C20-(HR)4 in SK-OV-3 cells; assay type: cell-based, human; conditions: SK-OV-3 (for doxorubicin, epirubicin per b1 and b46; not restated for the 1.5 fold sentence); drug 5 µM + C20-(HR)4 50 µM; 72 h; vs drug alone
Protocol: as §1

[3] = SK-OV-3, up to / at 50 µM peptide

With `CCCCCCCCCCCCCC(=O)N[C@@H](Cc1c[nH]cn1)C(=O)N[C@@H](CCCNC(=N)N)C(=O)N[C@@H](Cc1c[nH]cn1)C(=O)N[C@@H](CCCNC(=N)N)C(=O)N[C@@H](Cc1c[nH]cn1)C(=O)N[C@@H](CCCNC(=N)N)C(=O)N[C@@H](Cc1c[nH]cn1)C(=O)N[C@@H](CCCNC(=N)N)C(=O)O` [C14-(HR)4] (Myristoyl-HRHRHRHR-OH) the “cytotoxicity (in words)” value ([1]; SK-OV-3, 100 µM peptide) was “mild cytotoxicity”, the “cytotoxicity (in words)” value [1, 3] was “not toxic” and the “cytotoxicity (in words)” value ([1]; SK-OV-3, up to / at 50 µM peptide, listed as C14) was “did not show cytotoxicity”. For the same molecule, the “cytotoxicity (in words)” value ([2]; 100 µM peptide) was “mild cytotoxicity”, the “cytotoxicity (in words)” value ([2]; up to / at 50 µM peptide) was “not toxic” and the “cytotoxicity (in words)” value ([2]; up to / at 50 µM peptide, listed as C14) was “did not show cytotoxicity”.
For `CCCCCCCC/C=C\CCCCCCCC(=O)N[C@@H](Cc1c[nH]cn1)C(=O)N[C@@H](CCCNC(=N)N)C(=O)N[C@@H](Cc1c[nH]cn1)C(=O)N[C@@H](CCCNC(=N)N)C(=O)N[C@@H](Cc1c[nH]cn1)C(=O)N[C@@H](CCCNC(=N)N)C(=O)N[C@@H](Cc1c[nH]cn1)C(=O)N[C@@H](CCCNC(=N)N)C(=O)O` [C18-(HR)4] (Oleoyl-HRHRHRHR-OH), the “cytotoxicity (in words)” value ([1]; SK-OV-3, 100 µM peptide) was “mild cytotoxicity”, the “cytotoxicity (in words)” value [1, 3] was “not toxic” and the “cytotoxicity (in words)” value ([1]; SK-OV-3, up to / at 50 µM peptide, listed as C18) was “did not show cytotoxicity”. For the same molecule, the “cytotoxicity (in words)” value ([2]; 100 µM peptide) was “mild cytotoxicity”, the “cytotoxicity (in words)” value ([2]; up to / at 50 µM peptide) was “not toxic” and the “cytotoxicity (in words)” value ([2]; up to / at 50 µM peptide, listed as C18) was “did not show cytotoxicity”.
For `CC(=O)O[C@H]1C(=O)[C@@]2(C)[C@H]([C@H](OC(=O)c3ccccc3)[C@]3(O)C[C@H](OC(=O)[C@H](O)[C@@H](NC(=O)c4ccccc4)c4ccccc4)C(C)=C1C3(C)C)[C@]1(OC(C)=O)CO[C@@H]1C[C@@H]2O` [paclitaxel], the “improvement of the drug's anti-proliferating potency by C20-(HR)4” value (CCRF-CEM cells) was “did not improve”.
With `CCCCCCCCCCCCCCCC(=O)N[C@@H](Cc1c[nH]cn1)C(=O)N[C@@H](CCCNC(=N)N)C(=O)N[C@@H](Cc1c[nH]cn1)C(=O)N[C@@H](CCCNC(=N)N)C(=O)N[C@@H](Cc1c[nH]cn1)C(=O)N[C@@H](CCCNC(=N)N)C(=O)N[C@@H](Cc1c[nH]cn1)C(=O)N[C@@H](CCCNC(=N)N)C(=O)O` [C16-(HR)4] (Palmitoyl-HRHRHRHR-OH) the “reduction in cell viability” value ([1]; SK-OV-3 (sentence speaks of both cell lines), 50 and 100 µM peptide, respectively, 72 h, MTS) was 35–70%, the “cytotoxic effect / reduction of proliferation” value ([1]; SK-OV-3, 10 µM peptide, 72 h, MTS) was 0% and the reduction of proliferation ([1]; SK-OV-3, 50 µM peptide) was 11%. The “cytotoxicity (in words)” value [1, 3] was “significant reduction in the cell viability”, the cytotoxic effect ([2]; 10 µM peptide, 72 h, MTS) was 0% and the “cytotoxicity (in words)” value ([2]; up to / at 50 µM peptide) was “significant reduction in the cell viability”.
In the case of `COc1cc([C@@H]2c3cc4c(cc3[C@@H](O[C@@H]3O[C@@H]5CO[C@@H](C)O[C@H]5[C@H](O)[C@H]3O)[C@H]3COC(=O)[C@H]23)OCO4)cc(OC)c1O` [etoposide], the “improvement of the drug's anti-proliferation potency / toxicity upon loading (physical mixture) with C20-(HR)4” value (SK-OV-3 cells) was “one and half” and the “improvement of the drug's anti-proliferating potency by C20-(HR)4” value (CCRF-CEM cells) was “did not improve”.
`N=C(N)NCCC[C@H](NC(=O)[C@H](Cc1c[nH]cn1)NC(=O)[C@H](CCCNC(=N)N)NC(=O)[C@H](Cc1c[nH]cn1)NC(=O)[C@H](CCCNC(=N)N)NC(=O)[C@H](Cc1c[nH]cn1)NC(=O)[C@H](CCCNC(=N)N)NC(=O)[C@H](Cc1c[nH]cn1)NC(=O)CCCCCCC(=O)O)C(=O)O` [C8-(HR)4] ({HOOC(CH2)6CO}-HRHRHRHR-OH) was tested, and the “cytotoxicity (in words)” value ([1]; SK-OV-3, 100 µM peptide) was “mild cytotoxicity”, the “cytotoxicity (in words)” value [1, 3] was “not toxic” and the “cytotoxicity (in words)” value ([1]; SK-OV-3, up to / at 50 µM peptide, listed as C8) was “did not show cytotoxicity”. The “cytotoxicity (in words)” value ([2]; 100 µM peptide) was “mild cytotoxicity”, the “cytotoxicity (in words)” value ([2]; up to / at 50 µM peptide) was “not toxic” and the “cytotoxicity (in words)” value ([2]; up to / at 50 µM peptide, listed as C8) was “did not show cytotoxicity”.
With Ac-HRHRHRHR [C2-(HR)4] the “cytotoxicity (in words)” value [1, 3] was “not toxic” and the “cytotoxicity (in words)” value ([2]; up to / at 50 µM peptide) was “not toxic”.
For `CCCCCCCCCCCC(=O)N[C@@H](Cc1c[nH]cn1)C(=O)N[C@@H](CCCNC(=N)N)C(=O)N[C@@H](Cc1c[nH]cn1)C(=O)N[C@@H](CCCNC(=N)N)C(=O)N[C@@H](Cc1c[nH]cn1)C(=O)N[C@@H](CCCNC(=N)N)C(=O)N[C@@H](Cc1c[nH]cn1)C(=O)N[C@@H](CCCNC(=N)N)C(=O)O` [C12-(HR)4] (Lauroyl-HRHRHRHR-OH), the “cytotoxicity (in words)” value ([1]; SK-OV-3, 100 µM peptide) was “mild cytotoxicity”, the “cytotoxicity (in words)” value [1, 3] was “not toxic” and the “cytotoxicity (in words)” value ([1]; SK-OV-3, up to / at 50 µM peptide, listed as C12) was “did not show cytotoxicity”. For the same molecule, the “cytotoxicity (in words)” value ([2]; 100 µM peptide) was “mild cytotoxicity”, the “cytotoxicity (in words)” value ([2]; up to / at 50 µM peptide) was “not toxic” and the “cytotoxicity (in words)” value ([2]; up to / at 50 µM peptide, listed as C12) was “did not show cytotoxicity”.

Reference: PMC6100079, “Design, Synthesis, and Evaluation of Homochiral Peptides Containing Arginine and Histidine as Molecular Transporters” (Molecules : A Journal of Synthetic Chemistry and Natural …, 2018)
